Data reported in patent US12691086B2, “Methods of treating systemic sclerosis and idiopathic pulmonary fibrosis” (HORIZON THERAPEUTICS IRELAND DAC, priority 2022, dated 2026).
“Also recorded” adds a separate entry of the source.

Legend:
[1] = target: T1, organic anion transporter 3 (OAT3) (Homo sapiens, UniProt Q8TCC7); experiment: In vitro inhibition of organic anion transporter 3; format: in vitro ADME
T1 sequence (Q8TCC7 1-542): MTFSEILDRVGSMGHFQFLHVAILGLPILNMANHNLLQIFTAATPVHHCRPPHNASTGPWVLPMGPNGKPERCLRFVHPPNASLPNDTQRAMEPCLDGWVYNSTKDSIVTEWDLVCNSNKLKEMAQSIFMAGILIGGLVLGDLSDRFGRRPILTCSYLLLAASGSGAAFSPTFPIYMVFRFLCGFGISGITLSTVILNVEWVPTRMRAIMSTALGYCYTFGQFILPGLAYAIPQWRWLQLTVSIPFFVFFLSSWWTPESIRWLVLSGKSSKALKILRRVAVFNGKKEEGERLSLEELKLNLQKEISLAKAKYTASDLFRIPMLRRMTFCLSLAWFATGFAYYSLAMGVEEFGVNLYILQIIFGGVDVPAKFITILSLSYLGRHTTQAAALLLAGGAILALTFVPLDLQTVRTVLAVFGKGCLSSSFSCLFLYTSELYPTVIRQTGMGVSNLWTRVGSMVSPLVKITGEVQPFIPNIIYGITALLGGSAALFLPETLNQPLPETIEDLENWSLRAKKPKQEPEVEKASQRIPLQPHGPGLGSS

[2] = tested on: bleomycin-induced skin fibrosis; experiment: Bleomycin-induced skin fibrosis model, therapeutic protocol; format: in vivo, mouse; conditions: 50 mg/kg/day
From the text: (§1) Two models of skin fibrosis were used to evaluate the effect of Compound I in comparison with imatinib mesylate, used as a reference.

[3] = tested on: cardiac hypertrophy, fibrosis and heart failure; experiment: Models of hypertension or diabetes-related cardiac hypertrophy, fibrosis and heart failure; conditions: in vivo
From the text: (§2) All these pathological events can be observed in SSc patients at different levels and further support the use of Compound I in these patients.

skin fibrosis = conditions: mouse, in vivo; cited from earlier work
tight skin (Tsk-1) mice = experiment: Tight skin (Tsk-1) mice model of skin fibrosis; format: in vivo, mouse; conditions: 30 mg/kg/day
From the text: as §1

[4] = target: lysophosphatidic acid receptor 1 (LPAR1) (Homo sapiens, UniProt Q92633); experiment: LPAR1 antagonism
renal failure = experiment: Models of hypertension-induced or nephrotoxicity-induced renal failure; conditions: in vivo
From the text: as §2

thrombosis = experiment: Acute models of coagulation and arterial thrombosis (two models in rats); format: in vivo
From the text: as §2

[5] = therapeutic protocol, mouse skin

lysophosphatidic acid receptor 1 (LPAR1), sequence (Q92633 whole entry): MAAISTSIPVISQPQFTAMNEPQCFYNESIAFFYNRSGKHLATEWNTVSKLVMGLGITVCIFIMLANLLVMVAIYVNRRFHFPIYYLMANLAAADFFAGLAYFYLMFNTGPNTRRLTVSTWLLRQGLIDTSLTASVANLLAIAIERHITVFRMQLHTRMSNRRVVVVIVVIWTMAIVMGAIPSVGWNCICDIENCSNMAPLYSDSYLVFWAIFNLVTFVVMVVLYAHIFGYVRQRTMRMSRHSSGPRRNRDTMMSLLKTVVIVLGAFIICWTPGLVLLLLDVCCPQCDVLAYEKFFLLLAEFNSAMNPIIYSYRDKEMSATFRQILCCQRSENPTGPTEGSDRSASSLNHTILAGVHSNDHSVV

- inhibition of OAT3 [1]: inhibitor
- LPAR1 antagonist activity [4]: potent and selective antagonist
Compound: COc1ccc(C(=O)NC2(C(=O)O)Cc3ccccc3C2)cc1OCCc1cccc(C)c1 [Compound I, 2-(4-methoxy-3-(3-methylphenethoxy)benzamido)-2,3-dihydro-1H-indene-2-carboxylic acid]
- effect on these markers versus imatinib reference [2]: comparable with the effects of imatinib
- collagen content [2, 5]: able to reverse
- dermal thickness [2, 5]: able to reverse
- myofibroblast differentiation [2, 5]: able to reverse
- arterial stiffness [3]: positive effect
- blood pressure [3]: mostly unchanged
- cardiac function and structure [3]: beneficial effect
- cardiac systolic and diastolic function [3]: improves
- collagen content (skin fibrosis): reduced
- dermal thickening (skin fibrosis): reversed
- myofibroblast differentiation (skin fibrosis): significantly inhibited
- progression of skin fibrosis (tight skin (Tsk-1) mice): inhibit the progression of skin fibrosis at a similar level than imatinib
- kidney function (renal failure): improved kidney function
- antithrombotic activity (thrombosis): moderate but significant antithrombotic activity; also recorded: demonstrated antithrombotic activity
